Assay results published in PubChem BioAssay AID1963861 (Molecular Pharmacology Branch, DTP, NCI, 2024).

Test system: 885724-159-R-J1-PDC KRAS PDC multicell spheroid viability
Test: Anticancer human tumor 885724-159-R-J1-PDC patient-derived pancreatic adenocarcinoma cell line growth inhibition [KRAS2]
Conditions: for IC50: curve of first compound; for viability, T/C: stronger effect = lower value; active = viability on the fitted dose curve at most 10% of control; inactive = the rest
Summary of the method: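 Combination screen of spheroid viability in tumor-cell co-cultures with endothelial (HUVEC) and mesenchymal stem cell stroma. Each agent was tested in half-log dilutions, topping at clinical Cmax or at 10 microM without a known Cmax.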

[1] = second compound 0.0316 µM, first compound 0.0316 µM
[2] = second compound 0.0316 µM, first compound 0.1 µM
[3] = second compound 0.0316 µM, first compound 0.316 µM
[4] = second compound 0.0316 µM, first compound 1 µM
[5] = second compound 0.0316 µM, first compound 3.16 µM
[6] = second compound 0.0316 µM, first compound 10 µM
[7] = second compound 0.1 µM, first compound 0.0316 µM
[8] = second compound 0.1 µM, first compound 0.1 µM
[9] = second compound 0.1 µM, first compound 0.316 µM
[10] = second compound 0.1 µM, first compound 1 µM
[11] = second compound 0.1 µM, first compound 3.16 µM
[12] = second compound 0.1 µM, first compound 10 µM
[13] = second compound 0.316 µM, first compound 0.0316 µM
[14] = second compound 0.316 µM, first compound 0.1 µM
[15] = second compound 0.316 µM, first compound 0.316 µM
[16] = second compound 0.316 µM, first compound 1 µM
[17] = second compound 0.316 µM, first compound 3.16 µM
[18] = second compound 0.316 µM, first compound 10 µM
[19] = second compound 1 µM, first compound 0.0316 µM
[20] = second compound 1 µM, first compound 0.1 µM
[21] = second compound 1 µM, first compound 0.316 µM
[22] = second compound 1 µM, first compound 1 µM
[23] = second compound 1 µM, first compound 3.16 µM
[24] = second compound 1 µM, first compound 10 µM
[25] = second compound 3.16 µM, first compound 0.0316 µM
[26] = second compound 3.16 µM, first compound 0.1 µM
[27] = second compound 3.16 µM, first compound 0.316 µM
[28] = second compound 3.16 µM, first compound 1 µM
[29] = second compound 3.16 µM, first compound 3.16 µM
[30] = second compound 3.16 µM, first compound 10 µM
[31] = second compound 0.0316 µM, first compound 0.000316 µM
[32] = second compound 0.0316 µM, first compound 0.001 µM
[33] = second compound 0.0316 µM, first compound 0.00316 µM
[34] = second compound 0.0316 µM, first compound 0.01 µM
[35] = second compound 0.1 µM, first compound 0.000316 µM
[36] = second compound 0.1 µM, first compound 0.001 µM
[37] = second compound 0.1 µM, first compound 0.00316 µM
[38] = second compound 0.1 µM, first compound 0.01 µM
[39] = second compound 0.316 µM, first compound 0.000316 µM
[40] = second compound 0.316 µM, first compound 0.001 µM
[41] = second compound 0.316 µM, first compound 0.00316 µM
[42] = second compound 0.316 µM, first compound 0.01 µM
[43] = second compound 1 µM, first compound 0.000316 µM
[44] = second compound 1 µM, first compound 0.001 µM
[45] = second compound 1 µM, first compound 0.00316 µM
[46] = second compound 1 µM, first compound 0.01 µM
[47] = second compound 3.16 µM, first compound 0.000316 µM
[48] = second compound 3.16 µM, first compound 0.001 µM
[49] = second compound 3.16 µM, first compound 0.00316 µM
[50] = second compound 3.16 µM, first compound 0.01 µM
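Also: spheroids exposed to agents for 7 days before readout.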

CC(C)NCC(C(=O)N1CCN(c2ncnc3c2C(C)CC3O)CC1)c1ccc(Cl)cc1 (stereo not given) + C=CC(=O)N1CCN(c2nc(OCC3CCCN3C)nc3c2CCN(c2cccc4cccc(C)c24)C3)CC1CC#N
active: viability, T/C [30] 6.38%
> 10000 nM: IC50 (second compound 0.0316 µM) | IC50 (second compound 0.1 µM) | IC50 (second compound 0.316 µM) | IC50 (second compound 1 µM)
43.6 nM: IC50 (second compound 3.16 µM)
inactive: viability, T/C [1] 84.5% | viability, T/C [2] 83.1% | viability, T/C [3] 81.1% | viability, T/C [4] 75.4% | viability, T/C [5] 75.6% | viability, T/C [6] 62.5% | viability, T/C [7] 90.8% | viability, T/C [8] 79.2% | viability, T/C [9] 69.9% | viability, T/C [10] 65.9% | viability, T/C [11] 79% | viability, T/C [12] 56.9% | viability, T/C [13] 89.3% | viability, T/C [14] 74.3% | viability, T/C [15] 67.9% | viability, T/C [16] 68.9% | viability, T/C [17] 69.8% | viability, T/C [18] 57.2% | viability, T/C [19] 83.5% | viability, T/C [20] 72.5% | viability, T/C [21] 61.5% | viability, T/C [22] 58.7% | viability, T/C [23] 61.4% | viability, T/C [24] 48.3% | viability, T/C [25] 55.9% | viability, T/C [26] 37% | viability, T/C [27] 33.8% | viability, T/C [28] 26.8% | viability, T/C [29] 16.4%

CC(C)n1nc(-c2ccc3oc(N)nc3c2)c2c(N)ncnc21 + C=CC(=O)N1CCN(c2nc(OCC3CCCN3C)nc3c2CCN(c2cccc4cccc(C)c24)C3)CC1CC#N
41.5 nM: IC50 (second compound 0.0316 µM)
19.1 nM: IC50 (second compound 0.316 µM)
0.86 nM: IC50 (second compound 3.16 µM)
24.2 nM: IC50 (second compound 0.1 µM)
8.71 nM: IC50 (second compound 1 µM)
inactive: viability, T/C [31] 88.8% | viability, T/C [32] 77.3% | viability, T/C [33] 67.8% | viability, T/C [34] 60.6% | viability, T/C [1] 49.9% | viability, T/C [2] 45.9% | viability, T/C [35] 88.1% | viability, T/C [36] 80.4% | viability, T/C [37] 69.4% | viability, T/C [38] 61.7% | viability, T/C [7] 44.2% | viability, T/C [8] 41.2% | viability, T/C [39] 82.1% | viability, T/C [40] 73.8% | viability, T/C [41] 61.4% | viability, T/C [42] 55.6% | viability, T/C [13] 45.1% | viability, T/C [14] 41.8% | viability, T/C [43] 81.9% | viability, T/C [44] 85.5% | viability, T/C [45] 63.8% | viability, T/C [46] 50.2% | viability, T/C [19] 44.1% | viability, T/C [20] 41.1% | viability, T/C [47] 68.3% | viability, T/C [48] 43.1% | viability, T/C [49] 42.9% | viability, T/C [50] 15.3% | viability, T/C [25] 24% | viability, T/C [26] 15.7%

CC1(C)CCC(CN2CCN(c3ccc(C(=O)NS(=O)(=O)c4ccc(NCC5CCOCC5)c([N+](=O)[O-])c4)c(Oc4cnc5[nH]ccc5c4)c3)CC2)=C(c2ccc(Cl)cc2)C1 + C=CC(=O)N1CCN(c2nc(OCC3CCCN3C)nc3c2CCN(c2cccc4cccc(C)c24)C3)CC1CC#N
active: viability, T/C [6] 7.81% | viability, T/C [12] 9.45% | viability, T/C [18] 9.84% | viability, T/C [24] 6.08% | viability, T/C [29] 0.97% | viability, T/C [30] 0.63%
339 nM: IC50 (second compound 3.16 µM)
3850 nM: IC50 (second compound 1 µM)
3280 nM: IC50 (second compound 0.316 µM)
5180 nM: IC50 (second compound 0.1 µM)
4250 nM: IC50 (second compound 0.0316 µM)
inactive: viability, T/C [1] 99.3% | viability, T/C [2] 100% | viability, T/C [3] 108% | viability, T/C [4] 101% | viability, T/C [5] 64.8% | viability, T/C [7] 115% | viability, T/C [8] 100% | viability, T/C [9] 93.1% | viability, T/C [10] 107% | viability, T/C [11] 80.5% | viability, T/C [13] 100% | viability, T/C [14] 99.8% | viability, T/C [15] 94.8% | viability, T/C [16] 100% | viability, T/C [17] 51.3% | viability, T/C [19] 86.1% | viability, T/C [20] 97.8% | viability, T/C [21] 87.3% | viability, T/C [22] 84.5% | viability, T/C [23] 59% | viability, T/C [25] 55.2% | viability, T/C [26] 55% | viability, T/C [27] 43.9% | viability, T/C [28] 35.8%

CCN1CCN(Cc2ccc(Nc3ncc(F)c(-c4cc(F)c5nc(C)n(C(C)C)c5c4)n3)nc2)CC1 + C=CC(=O)N1CCN(c2nc(OCC3CCCN3C)nc3c2CCN(c2cccc4cccc(C)c24)C3)CC1CC#N
inactive: viability, T/C [33] 105% | viability, T/C [34] 102% | viability, T/C [1] 91.2% | viability, T/C [2] 89.1% | viability, T/C [3] 89.3% | viability, T/C [4] 89.6% | viability, T/C [37] 93.1% | viability, T/C [38] 93.6% | viability, T/C [7] 75.9% | viability, T/C [8] 74.5% | viability, T/C [9] 77.7% | viability, T/C [10] 91.2% | viability, T/C [41] 101% | viability, T/C [42] 88.1% | viability, T/C [13] 78% | viability, T/C [14] 78.4% | viability, T/C [15] 76.6% | viability, T/C [16] 82.5% | viability, T/C [45] 75.7% | viability, T/C [46] 86.1% | viability, T/C [19] 78.1% | viability, T/C [20] 68.5% | viability, T/C [21] 72.4% | viability, T/C [22] 82.3% | viability, T/C [49] 53.1% | viability, T/C [50] 54.1% | viability, T/C [25] 46% | viability, T/C [26] 41.3% | viability, T/C [27] 49.4% | viability, T/C [28] 47.6%
10 nM: IC50 (second compound 3.16 µM)
> 1000 nM: IC50 (second compound 0.0316 µM) | IC50 (second compound 0.1 µM) | IC50 (second compound 0.316 µM) | IC50 (second compound 1 µM)

COc1cc2nccc(Oc3ccc(NC(=O)C4(C(=O)Nc5ccc(F)cc5)CC4)cc3)c2cc1OC + C=CC(=O)N1CCN(c2nc(OCC3CCCN3C)nc3c2CCN(c2cccc4cccc(C)c24)C3)CC1CC#N
430 nM: IC50 (second compound 3.16 µM)
inactive: viability, T/C [1] 109% | viability, T/C [2] 114% | viability, T/C [3] 113% | viability, T/C [4] 99.5% | viability, T/C [5] 70.4% | viability, T/C [6] 69.9% | viability, T/C [7] 111% | viability, T/C [8] 108% | viability, T/C [9] 102% | viability, T/C [10] 111% | viability, T/C [11] 72.2% | viability, T/C [12] 73% | viability, T/C [13] 102% | viability, T/C [14] 111% | viability, T/C [15] 106% | viability, T/C [16] 104% | viability, T/C [17] 79.7% | viability, T/C [18] 62.7% | viability, T/C [19] 111% | viability, T/C [20] 108% | viability, T/C [21] 111% | viability, T/C [22] 102% | viability, T/C [23] 66.6% | viability, T/C [24] 59.6% | viability, T/C [25] 80.1% | viability, T/C [26] 73.7% | viability, T/C [27] 55% | viability, T/C [28] 33.7% | viability, T/C [29] 12.4%
> 10000 nM: IC50 (second compound 0.0316 µM) | IC50 (second compound 0.1 µM) | IC50 (second compound 0.316 µM) | IC50 (second compound 1 µM)
active: viability, T/C [30] 0.35%

Cn1ncnc1[C@H]1c2n[nH]c(=O)c3cc(F)cc(c23)N[C@@H]1c1ccc(F)cc1 + C=CC(=O)N1CCN(c2nc(OCC3CCCN3C)nc3c2CCN(c2cccc4cccc(C)c24)C3)CC1CC#N
inactive: viability, T/C [31] 115% | viability, T/C [32] 117% | viability, T/C [33] 108% | viability, T/C [34] 103% | viability, T/C [1] 97.8% | viability, T/C [2] 96.1% | viability, T/C [35] 106% | viability, T/C [36] 108% | viability, T/C [37] 98.7% | viability, T/C [38] 108% | viability, T/C [7] 106% | viability, T/C [8] 89.5% | viability, T/C [39] 110% | viability, T/C [40] 111% | viability, T/C [41] 106% | viability, T/C [42] 102% | viability, T/C [13] 112% | viability, T/C [14] 88.6% | viability, T/C [43] 100% | viability, T/C [44] 114% | viability, T/C [45] 108% | viability, T/C [46] 101% | viability, T/C [19] 102% | viability, T/C [20] 99.4% | viability, T/C [47] 69.6% | viability, T/C [48] 61.4% | viability, T/C [49] 63.3% | viability, T/C [50] 67.7% | viability, T/C [25] 59.5% | viability, T/C [26] 59.7%
> 100 nM: IC50 (second compound 0.0316 µM) | IC50 (second compound 0.1 µM) | IC50 (second compound 0.316 µM) | IC50 (second compound 1 µM) | IC50 (second compound 3.16 µM)
